Laboratory results from patent US8163778B2 (Hoffmann-LA Roche Inc., priority 2007, dated 2012).
pIC50: −log10 of the molar value.

Biological target: T1, human liver FBPase (Homo sapiens, UniProt P09467)
T1 construct: made in house; host or cells: E. coli
T1 sequence (P09467 2-338 limits assumed): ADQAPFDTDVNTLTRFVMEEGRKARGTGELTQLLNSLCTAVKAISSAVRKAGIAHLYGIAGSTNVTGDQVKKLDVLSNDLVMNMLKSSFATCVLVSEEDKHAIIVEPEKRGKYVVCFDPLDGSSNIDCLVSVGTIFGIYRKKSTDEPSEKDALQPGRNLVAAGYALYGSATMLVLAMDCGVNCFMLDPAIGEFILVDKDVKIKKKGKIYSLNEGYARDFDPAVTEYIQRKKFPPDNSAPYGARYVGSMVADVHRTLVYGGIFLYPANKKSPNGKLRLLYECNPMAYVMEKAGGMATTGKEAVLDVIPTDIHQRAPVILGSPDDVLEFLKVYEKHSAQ
Test: FBPase assay (malachite green phosphate release)
Type: biochemical
Conditions: recombinant human liver FBPase, 50 μM fructose-1,6-bisphosphate
Method: The following tests were carried out for evaluating the inhibitory activity of the compounds of the present invention against human liver FBPase (Swissprot Data base reference PO9467, entry F16P_HUMAN).
Human liver FBPase cDNA (NM_000507) was purchased from Origene Technologies, Inc, subcloned in a vector for expression in E. Coli., and sequenced. Recombinant human liver FBPase (hlFBPase) was purified according to the following protocol that uses heat denaturation similarly to that described by El-Maghrabi et al. [El-Maghrabi, M. R. et al. “Isolation of a human liver fructose-1,6-bisphosphatase cDNA and expression of the protein in Escherichia coli.” J Biol Chem 268:9466-9472, 1993.]. Briefly, E. coli cells, transiently expressing very high levels of soluble and active human liver FBPase, were suspended in 20 mM Tris-HCl pH 7.5, 1 mM EDTA, 1 mM DTT and were lysed by French press. The soluble extract was heat denatured at 65° C. for 5 min, and insoluble, denatured proteins were removed by centrifugation. The extract was then applied to a BioRad Macro-Prep High Q column equilibrated with 20 mM Tris-HCl pH 7.5, 1 mM EDTA, 1 mM DTT and the flow-through (containing FBPase activity) was collected and applied to a BioRad Macro-Prep HS column equilibrated with 20 mM HEPES pH 7.2, 1 mM DTT. A gradient of increasing NaCl concentration was then applied to the HS column and fractions were collected. Fractions containing active FBPase were pooled and further purified by size exclusion chromatography on a Sephacryl S200 column equilibrated in 20 mM Tris-HCl pH 7.5, 150 mM NaCl, 1 mM EDTA, 1 mM DTT. Purity of the enzyme preparation was >90% as assessed by Mass spectrometry.
Recombinant human liver FBPase (hlFBPase) activity was assayed through measuring the inorganic phosphate release that results from the hydrolysis of Fructose-1,6-bisphosphate by the enzyme. As described by Baykov A. A. et al. in [Baykov A. A et al., “Malachite Green procedure for orthophosphate determination and its use in alkaline phosphatase-based enzyme immunoassays”. Anal. Biochem., 171:266-270, 1988], inorganic phosphate can be readily quantified by spectrophotometry at 620 nm after complexation with ammonium molybdate/malachite green reagent. Enzymatic reaction was carried out with modifications of the procedure described by Wright S. W. et al. [Wright S. W. et al., “Anilinoquinazoline inhibitors of Fructose-1,6-bisphosphatase bind to a novel allosteric site: synthesis, in vitro characterization, and X-ray crystallography”. J. Med. Chem. 45:3865-3877, 2002]. Specifically, the reaction was carried out in 96 well plates in a final volume of 100 μl in the presence or in the absence of allosteric inhibitors. Reaction was started adding 25 ng of hlFBPase to the reaction mixture containing 50 mM HEPES-KOH buffer pH 7.2, 2 mM MgCl2, 2 mM EDTA, 1 mM DTT, 50 μM fructose-1,6-bisphosphate and 1% DMSO. After 50 minutes incubation at room temperature, the phosphate released was allowed to form a colored complex for 10 min by adding 150 μl of ammonium molybdate/malachite green reagent containing 0.03% malachite green, 0.2% ammonium molybdate, 0.05% Triton X-100 and 0.7 M H2SO4 in water that was stirred for 30 min at room temperature and filtered through 0.2 μm filter. Under these conditions, the assay was linear with time and able to detect FBPase inhibition after spectrophotometric read-out at 620 nm.

Row | pIC50 | Structure (SMILES)
1 | 6.08 | CSc1cc(N)nc(NC(=O)NS(=O)(=O)c2csc(C)c2)c1 [Compound 43, N-{[6-Amino-4-(methylthio)pyridin-2-yl]carbamoyl}-5-methylthiophene-3-sulfonamide]
2 | 6.06 | COCCc1sc(S(=O)(=O)NC(=O)Nc2cc(SC)cc(NCCF)n2)cc1C [Compound 45, N-({6-[(2-Fluoroethyl)amino]-4-(methylthio)pyridin-2-yl}carbamoyl)-5-(2-methoxyethyl)-4-methylthiophene-2-sulfonamide]
3 | 6.03 | COCCc1sc(S(=O)(=O)NC(=O)Nc2cc(C)cc(C3CCc4ccccc4C3)n2)cc1C (stereo not drawn) [Compound 46, 5-(2-Methoxyethyl)-4-methyl-N-{[4-methyl-6-(1,2,3,4-tetrahydronaphthalen-2-yl)pyridin-2-yl]carbamoyl}thiophene-2-sulfonamide]
4 | 5.99 | O=C(Nc1cc(Br)cc(NCC(F)F)n1)NS(=O)(=O)c1ccc2c(c1)CCO2 [Compound 47, N-({4-Bromo-6-[(2,2-difluoroethyl)amino]pyridin-2-yl}carbamoyl)-2,3-dihydro-1-benzofuran-5-sulfonamide]
5 | 5.99 | COCCc1sc(S(=O)(=O)NC(=O)Nc2cc(SC)cc(NCCO)n2)cc1C [Compound 48, N-({6-[(2-Hydroxyethyl)amino]-4-(methylthio)pyridin-2-yl}carbamoyl)-5-(2-methoxyethyl)-4-methylthiophene-2-sulfonamide]
6 | 5.97 | CNC(=O)Nc1cc(OC)cc(NC(=O)NS(=O)(=O)c2cn(C)c3c(OCCOC)cccc23)n1 [Compound 49]
7 | 5.96 | CNC(=O)Nc1cc(S(C)(=O)=O)cc(NC(=O)NS(=O)(=O)c2cc(C)c(CCOC)s2)n1 [Compound 50, 5-(2-Methoxyethyl)-4-methyl-N-({6-[(methylcarbamoyl)amino]-4-(methylsulfonyl)pyridin-2-yl}carbamoyl)thiophene-2-sulfonamide]
8 | 5.95 | COCCOc1ccc(S(=O)(=O)NC(=O)Nc2cc(Br)cc(NCC(F)F)n2)cc1C [Compound 51, N-({4-Bromo-6-[(2,2-difluoroethyl)amino]pyridin-2-yl}carbamoyl)-4-(2-methoxyethoxy)-3-methylbenzenesulfonamide]
9 | 5.83 | COc1cccc2c(S(=O)(=O)NC(=O)Nc3cc(SC)cc(N)n3)cn(C)c12 [Compound 53, N-{[6-Amino-4-(methylthio)pyridin-2-yl]carbamoyl}-7-methoxy-1-methyl-1H-indole-3-sulfonamide]
10 | 5.82 | COCCc1sc(S(=O)(=O)NC(=O)Nc2cc(Br)cc(NC(=O)N(C)C)n2)cc1C [Compound 54, N-({4-Bromo-6-[(dimethylcarbamoyl)amino]pyridin-2-yl}carbamoyl)-5-(2-methoxyethyl)-4-methylthiophene-2-sulfonamide]
11 | 5.81 | O=C(Nc1cc(Br)ccn1)NS(=O)(=O)c1cccc(Cl)c1 [Compound 55, N-[(4-Bromopyridin-2-yl)carbamoyl]-3-chlorobenzenesulfonamide]
12 | 5.76 | COCCc1sc(S(=O)(=O)NC(=O)Nc2cc(C)cc(N3CCc4ccccc4C3)n2)cc1C [Compound 56, N-{[6-(3,4-Dihydroisoquinolin-2(1H)-yl)-4-methylpyridin-2-yl]carbamoyl}-5-(2-methoxyethyl)-4-methylthiophene-2-sulfonamide]
13 | 5.75 | COCCOc1ccc(S(=O)(=O)NC(=O)Nc2cc(Br)cc(N)n2)cc1C [Compound 57, N-[(6-Amino-4-bromopyridin-2-yl)carbamoyl]-4-(2-methoxyethoxy)-3-methylbenzenesulfonamide]
14 | 5.71 | COCCc1sc(S(=O)(=O)NC(=O)Nc2cc(OC)cc(C#N)n2)cc1C [Compound 58, N-[(6-Cyano-4-methoxypyridin-2-yl)carbamoyl]-5-(2-methoxyethyl)-4-methylthiophene-2-sulfonamide]
15 | 5.69 | COCCc1sc(S(=O)(=O)NC(=O)Nc2cc(OC)cc(NC(=O)N(C)C)n2)cc1C [Compound 59, N-({6-[(Dimethylcarbamoyl)amino]-4-methoxypyridin-2-yl}carbamoyl)-5-(2-methoxyethyl)-4-methylthiophene-2-sulfonamide]
16 | 5.68 | Cc1cccc(S(=O)(=O)NC(=O)Nc2cc(Br)ccn2)c1 [Compound 60, N-[(4-Bromopyridin-2-yl)carbamoyl]-3-methylbenzenesulfonamide]
17 | 5.68 | COCCc1sc(S(=O)(=O)NC(=O)Nc2cc(OC)cc(NC(=O)OC)n2)cc1C [Compound 61, Methyl-{4-methoxy-6-[({[5-(2-methoxyethyl)-4-methyl-2-thienyl]sulfonyl}carbamoyl)amino]pyridin-2-yl}carbamate]
18 | 5.67 | COCCc1sc(S(=O)(=O)NC(=O)Nc2cc(C#N)cc(N)n2)cc1C [Compound 62, N-[(6-Amino-4-cyanopyridin-2-yl)carbamoyl]-5-(2-methoxyethyl)-4-methylthiophene-2-sulfonamide]
19 | 5.66 | CCOc1cc(N)nc(NC(=O)NS(=O)(=O)c2cc(C)c(CCOC)s2)c1 [Compound 64, N-[(6-Amino-4-ethoxypyridin-2-yl)carbamoyl]-5-(2-methoxyethyl)-4-methylthiophene-2-sulfonamide]
20 | 5.66 | N#CCc1ccc(-c2ccc(S(=O)(=O)NC(=O)Nc3cc(Br)ccn3)s2)cc1 [Compound 65, N-[(4-Bromopyridin-2-yl)carbamoyl]-5-[4-(cyanomethyl)phenyl]thiophene-2-sulfonamide]
21 | 5.63 | COCCc1sc(S(=O)(=O)NC(=O)Nc2cc(Br)cc(NCc3ccc(OC)cc3OC)n2)cc1C [Compound 66, N-({4-Bromo-6-[(2,4-dimethoxybenzyl)amino]pyridin-2-yl}carbamoyl)-5-(2-methoxyethyl)-4-methylthiophene-2-sulfonamide]
22 | 5.60 | O=C(Nc1cc(Br)cc(NC(=O)NS(=O)(=O)c2cccc(Cl)c2)n1)NS(=O)(=O)c1cccc(Cl)c1 [Compound 67, N,N′-[(4-Bromopyridine-2,6-diyl)bis(iminocarbonyl)]bis(3-chlorobenzenesulfonamide)]
23 | 5.52 | CCOc1cc(NC(=O)NS(=O)(=O)c2cc(C)c(CCOC)s2)nc(NC(=O)N(C)C)c1 [Compound 68, N-({6-[(Dimethylcarbamoyl)amino]-4-ethoxypyridin-2-yl}carbamoyl)-5-(2-methoxyethyl)-4-methylthiophene-2-sulfonamide]
24 | 5.46 | CNC(=O)Nc1cc(OC)cc(NC(=O)NS(=O)(=O)c2cn(C)c3c(OCC(=O)N(C)C)cccc23)n1 [Compound 70, 2-[(3-{[({4-Methoxy-6-[(methylcarbamoyl)amino]pyridin-2-yl}carbamoyl)amino]sulfonyl}-1-methyl-1H-indol-7-yl)oxy]-N,N-dimethylacetamide]
25 | 5.39 | COCCc1sc(S(=O)(=O)NC(=O)Nc2cc(SC)cc(O)n2)cc1C [Compound 71, N-{[6-Hydroxy-4-(methylthio)pyridin-2-yl]carbamoyl}-5-(2-methoxyethyl)-4-methylthiophene-2-sulfonamide]
26 | 5.34 | Cc1cccc(S(=O)(=O)NC(=O)Nc2cccc(Cl)n2)c1 [Compound 72, N-[(6-Chloropyridin-2-yl)carbamoyl]-3-methylbenzenesulfonamide]

Row | Structure (SMILES) | pIC50
27 | O=C(Nc1cc(Br)ccn1)NS(=O)(=O)c1ccc(Cl)cc1 [Compound 69, N-[(4-Bromopyridin-2-yl)carbamoyl]-4-chlorobenzenesulfonamide] | 5.51
